pIC50: −log10 of the molar value.
Key:
tryptase enzyme = biological target: T1, tryptase enzyme (Homo sapiens, UniProt P20231); assay: Tryptase enzyme inhibition (cleavage of tosyl-gly-pro-lys-pNA, absorbance at 405 nm); format: biochemical; details: 2 h at 37° C.; relative to controls
T1 construct: purchased Millipore Inc., Westbury, Mass
Description: A. Tryptase Enzyme Inhibition
Tryptase activity was determined by monitoring the production of chromophore p-nitroaniline (pNA) generated by the cleavage of tosyl-gly-pro-lys-pNA by the tryptase enzyme according to the manufacturer's protocol (Millipore Inc., Westbury, Mass.). In a 96-well format, 10 μL of tryptase was added to 10 μL of sample, followed by 20 μL of tosyl-gly-pro-lys-pNA and 160 μL of 1× reaction buffer and incubated for 2 h at 37° C. After the incubation, absorbance at 405 nm was measured in each well using a Tecan M200 microplate reader.

[1] = Pharmacokinetic analysis: serum and urine by DART TOF-MS after a 100 mg lozenge; format: in vivo, human; details: humans
Description: Five healthy consenting female adults ranging in age from 23 to 57 were took diets free of flavonoids and any NSAIDs. A certified individual collected blood samples at several time intervals between 0 and 480 min after compounds of the present invention were ingested in a mixture. Immediately after the time zero blood samples were collected, a single 100 mg dose of the composition was administered as a lozenge. Blood samples were handled with approved protocols and precautions, centrifuged to remove cells and the serum fraction was collected and frozen. Blood was not treated with heparin to avoid any analytical interference. Urine samples were collected from the same five subjects on a time course (0 to 8 h). The cells were removed from the blood samples by centrifugation and the serum was collected. Serum samples were prepared for DART TOF-MS analysis by extraction with an equal volume of neat ethanol (USP) to minimize background of proteins, peptides, and polysaccharides present in serum. The ethanol extract was centrifuged for 10 min at 4° C., the supernatant was removed, concentrated to 200 μL volume, and 50 μL of an internal standard was added. Urine samples were not treated and used directly for DART TOF-MS. DART TOF-MS analyses were conducted as described above.

[2] = in a mixture, slow-dissolve lozenge

T1 sequence (P20231 31-275): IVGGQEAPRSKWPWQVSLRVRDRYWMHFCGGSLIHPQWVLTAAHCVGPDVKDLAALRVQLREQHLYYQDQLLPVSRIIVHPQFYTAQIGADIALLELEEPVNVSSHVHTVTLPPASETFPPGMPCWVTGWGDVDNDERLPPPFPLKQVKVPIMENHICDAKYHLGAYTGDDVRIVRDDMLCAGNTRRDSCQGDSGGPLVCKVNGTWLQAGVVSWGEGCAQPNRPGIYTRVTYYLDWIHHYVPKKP

pIC50 (tryptase enzyme): 3.31 | Time to appearance in urine [1, 2]: ≤ 1 h | Time to first appearance in bloodstream (serum) [1, 2]: ≤ 10 min | Time up to which present in the blood post-ingestion [1, 2]: up to 360 min | Time up to which present in urine post-ingestion [1, 2]: up to 8 h | Detection in blood at 480 min after ingestion ([1]; lozenge, 480 min): not detected
SMILES: CCCCCN(c1ccc(N)cc1)c1ccc(S)cc1.Cl [III, 4-[(4-Amino-phenyl)-pentyl-amino]benzenethiol hydrochloride salt]

Reference: US20100113608A1, “Tryptase Enzyme Inhibiting Aminothiophenols” (priority 2008, published 2010)
